Assay results as given in ChEMBL document CHEMBL1143207, “New 7,8-benzoflavanones as potent aromatase inhibitors: synthesis and biological evaluation” (Bioorg Med Chem, 2008).
pIC50: −log10 of the molar value.

Target: T1, Aromatase (Homo sapiens, UniProt P11511)
T1 sequence (P11511 whole entry): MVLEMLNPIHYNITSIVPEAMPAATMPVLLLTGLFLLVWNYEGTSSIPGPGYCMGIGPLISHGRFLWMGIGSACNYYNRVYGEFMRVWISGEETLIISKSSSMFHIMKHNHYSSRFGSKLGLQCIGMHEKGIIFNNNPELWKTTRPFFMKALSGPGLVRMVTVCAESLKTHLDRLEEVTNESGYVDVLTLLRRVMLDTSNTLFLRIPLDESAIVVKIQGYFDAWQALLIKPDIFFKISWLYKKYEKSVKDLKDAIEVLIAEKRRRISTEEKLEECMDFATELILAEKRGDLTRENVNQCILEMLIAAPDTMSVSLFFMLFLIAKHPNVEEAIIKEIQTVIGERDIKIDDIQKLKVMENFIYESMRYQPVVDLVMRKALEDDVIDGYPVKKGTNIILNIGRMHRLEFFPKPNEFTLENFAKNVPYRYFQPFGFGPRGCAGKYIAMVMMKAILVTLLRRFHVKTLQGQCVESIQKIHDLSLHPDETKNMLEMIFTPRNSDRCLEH
Format: microsomes, Placenta, Microsomes
Description: Inhibition of human aromatase in placental microsomes

SMILES	pIC50
O=C1CC(c2ccc(O)cc2)Oc2c1ccc1ccccc21 (configuration not stated)	6.20
O=C1CC(c2cccc(O)c2)Oc2c1ccc1ccccc21 (configuration not stated)	6.21
O=C1CC(c2ccccc2)Oc2c1ccc1ccccc21 (configuration not stated)	5.37
O=C1C[C@@H](c2ccc(O)cc2)Oc2cc(O)ccc21 [LIQUIRTIGENIN]	5.68
O=C1CC(c2cccc(O)c2)Oc2cc(O)ccc21 (configuration not stated)	5.47
N#Cc1ccc(C2CC(=O)c3ccc4ccccc4c3O2)cc1 (configuration not stated)	5.81
N#Cc1cccc(C2CC(=O)c3ccc4ccccc4c3O2)c1 (configuration not stated)	5.86
